This note sets out measurements from patent publication US7718704B2, “Immunosuppressant compounds and compositions” (IRM LLC, priority 2004, dated 2010).

For assay [1], the system named is peripheral blood lymphocytes. As to the kind of experiment: Measurement of circulating lymphocytes (blood lymphocyte depletion). In kind it is in vivo, mice (C57bl/6 male). The note with it: Mus musculus, mice, oral gavage, blood collected 6 and 24 hours after administration, read-out: ED50, effective dose required displaying 50% of blood lymphocyte depletion. How it is done: Measurements of circulating lymphocytes: Compounds are dissolved in DMSO and diluted to obtain a final concentration of 4% DMSO (v/v, final concentration) and then further diluted in a constant volume of Tween80 25%/H2O, v/v. Tween80 25%/H2O (200 μl), 4% DMSO, and FTY720 (10 μg) are included as negative and positive controls, respectively. Mice (C57bl/6 male, 6-10 week-old) are administered 250-300 μL of compound solution orally by gavages under short isoflurane anesthesia.
Blood is collected from the retro-orbital sinus 6 and 24 hours after drug administration under short isoflurane anesthesia. Whole blood samples are subjected to hematology analysis. Peripheral lymphocyte counts are determined using an automated analyzer. Subpopulations of peripheral blood lymphocytes are stained by fluorochrome-conjugated specific antibodies and analyzed using a fluorescent activating cell sorter (Facscalibur). Two mice are used to assess the lymphocyte depletion activity of each compound screened. The result is an ED50, which is defined as the effective dose required displaying 50% of blood lymphocyte depletion.

Assay [2] deals with EDG-3, EDG-5, EDG-6 and EDG-8. As to the kind of experiment: EDG-3, -5, -6 and -8 GTP [γ-35S] binding assays (selectivity versus EDG-1). It is filed as biochemical, human. How it is done: (§1) A. In vitro: A scintillation proximity assay (SPA) for measuring GTP [γ-^35S]binding to membranes prepared from CHO cells expressing human EDG/S1P receptors.
Concentrations of EDG receptor expressing membranes range between 13-19 μg per well.

The target of the next assay is T1, human EDG-1 (Homo sapiens, UniProt P21453).
T1 construct: c-myc (N); expressed in transfected cells; host or cells: CHO cell clones (membrane preparation)
T1 sequence (P21453 whole entry): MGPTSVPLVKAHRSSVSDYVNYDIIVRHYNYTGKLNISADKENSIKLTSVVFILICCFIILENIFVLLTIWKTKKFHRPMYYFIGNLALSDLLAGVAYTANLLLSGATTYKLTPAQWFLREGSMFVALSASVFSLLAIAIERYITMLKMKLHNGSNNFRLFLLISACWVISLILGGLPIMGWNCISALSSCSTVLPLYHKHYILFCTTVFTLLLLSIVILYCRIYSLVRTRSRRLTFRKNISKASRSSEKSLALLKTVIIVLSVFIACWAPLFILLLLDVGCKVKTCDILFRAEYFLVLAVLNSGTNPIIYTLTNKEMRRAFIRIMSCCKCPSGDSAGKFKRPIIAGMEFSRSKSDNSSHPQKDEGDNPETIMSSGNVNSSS
As to the kind of experiment: EDG-1 (S1P1) GTP [γ-35S] binding assay (SPA). In kind it is biochemical. Conditions: membranes of CHO cells expressing human EDG-1. As to the method: as §1
EDG-1 (S1P1) GTP [γ-^35S] binding assay: Membrane protein suspensions are prepared from CHO cell clones stably expressing a human EDG-1 N-terminal c-myc tag. Solution of test compounds ranging from 10 mM to 0.01 nM are prepared in DMSO/50 mM HCl and then diluted into assay buffer (20 mM HEPES, pH7.4, 100 mM NaCl, […], 0.1% fat free BSA). Assay buffer containing 10 mM GDP is mixed with wheat germ agglutinin-coated SPA-beads (1 mg/well) followed by the addition of human EDG-1 membrane protein suspension (10 μg/well) and test compound. The bead/membrane/compound assay components are then mixed for 10-15 minutes on a shaker at room temperature. GTP [γ-^35S] ([…]) and bead/membrane/compound assay mixture are added to individual wells of a 96 well Optiplate™(final volume 225 μl/well), sealed and incubated at room temperature for 110 to 120 minutes under constant shaking. After centrifugation (2000 rpm, 10 minutes) luminescence is measured with a TopCount™ instrument.
EC50 values are obtained by fitting the GTP [γ-^35S] binding curves (raw data) with the dose response curve-fitting tool of ORIGIN V. 6.1. […]

Regarding `O=C(O)C1CN(Cc2ccc3c(c2)CCC/C3=N\OCc2ccc(C3CCCCC3)c(C(F)(F)F)c2)C1` [Example 2, 1-[5-(4-Cyclohexyl-3-trifluoromethyl-benzyloxyimino)-5,6,7,8-tetrahydro-naphthalen-2-ylmethyl]-azetidine-3-carboxylic acid], in assay [1], the ED50 – broadly, the dose at which the effect has come halfway, by size or by number of responders – was 0.2 mg/kg.
On to `O=C(O)CCNCc1ccc2c(c1)CCC/C2=N\OCc1ccc(C2CCCCC2)c(C(F)(F)F)c1` [Example 1, 3-{[5-(4-Cyclohexyl-3-trifluoromethyl-benzyloxyimino)-5,6,7,8-tetrahydro-naphthalen-2-ylmethyl]-amino}-propionic Acid], for which the “selectivity for EDG-1 compared to one or more of the other receptors including EDG-3, EDG-5, EDG-6 and EDG-8” value in assay [2] was “at least 1000 fold”. Moreover, the EC50 (as a rule, the concentration at which the effect is half-maximal) at human EDG-1 was 0.78 nM.
